In ChEMBL document CHEMBL3044549, “Colchicine and its various physicochemical and biological aspects” (Med Chem Res, 2013):

Tests used:
[1] = Elimination half life in healthy Homo sapiens (human); assay type: ADME, organism-based; conditions: in vivo, read-out: beta t1/2 (converted)
[2] = Renal clearance in healthy Homo sapiens (human); assay type: ADME, organism-based, Kidney; conditions: in vivo
[3] = Volume of distribution in Homo sapiens (human); assay type: ADME, organism-based; conditions: in vivo
Homo sapiens = species on record: Homo sapiens; assay: Distribution half life in Homo sapiens (human); assay type: ADME, organism-based; conditions: in vivo
[4] = Oral bioavailability in older Homo sapiens (human) individuals at 1 mg; assay type: ADME, organism-based; conditions: in vivo
[5] = Oral bioavailability in healthy Homo sapiens (human) at 1 mg; assay type: ADME, organism-based; conditions: in vivo

Question: With `COc1cc2c(c(OC)c1OC)-c1ccc(OC)c(=O)cc1[C@@H](NC(C)=O)CC2` [COLCHICINE] as the compound, how does the half-life [1] read?
Answer: 14 h

Question: What about the CL renal [2] of the same compound?
Answer: 66.7 mL/min

Question: And the Vd [3]?
Answer: 7 L/kg

Question: What about the alphat1/2 (Homo sapiens) of the same compound?
Answer: 1 h

Question: What about the bioavailability [4] of the same compound?
Answer: 45%

Question: What about the bioavailability [5] of the same compound?
Answer: 45%
